Data taken from patent EP1220870B1, “METAL-BINDING COMPOUNDS AND USES THEREFOR” (DMI Biosciences, Inc., priority 1999, dated 2001).
No end group written: not given here.

Tests used:
Assay type in all cases: biochemical
hydroxyl radicals = test: Inhibition of hydroxyl radical production, Cu(II)/ascorbic acid deoxyribose TBA assay (Example 10); settings: compound/copper 2:1; for % Inhibition: percent decrease in absorbance compared to buffer alone
Method: The ability of the compounds listed above to inhibit the generation of hydroxyl radicals was tested as described in Gutteridge and Wilkins, Biochim. Biophys. Acta, 759:38-41 (1983). Briefly, Cu(II) and ascorbic acid were mixed causing the generation of hydroxyl radicals. Then, deoxyribose was added, and the hydroxyl radicals, if present, attacked the deoxyribose to produce fragments. […]. Thus, absorbance at 532 nm is a measure of the damage to deoxyribose and, therefore, of hydroxyl radical formation.
To perform the assay, CuCl2 in buffer (20 mM KH2PO4 buffer, pH 7.4) and either one of the test compounds in buffer or buffer alone were added to test tubes (final concentration of CuCl2 was 10µM). The test tubes were incubated for 15 minutes at room temperature. Then, 0.5 mM ascorbic acid in buffer and 1.9 mM 2-deoxy-D-ribose in buffer were added to each test tube, and the test tubes were incubated for 1 hour at 37°C. Finally, 1 ml of 1% (w/v) TBA in 50 mM NaOH and 1 ml of concentrated acetic acid were added to each test tube, and the test tubes were incubated in boiling water for 15 minutes. After the test tubes had cooled for 15 minutes, the absorbance at 532 nm was read.

Superoxide radical [1] = test: Superoxide dismutase (SOD) activity, xanthine oxidase/NBT assay; settings: for SOD activity (inhibition of NBT reduction): xanthine oxidase assay, pH 10.2, 1.2 µM EDTA
Method: The SOD activity of copper complexes of the tetrapeptide L-Asp L-Ala L-His L-Lys [SEQ ID NO:1] was assayed. Superoxide radicals were produced using the xanthine oxidase assay of Beauchamp and Fridovich, Anal. Biochem., 44:276-287 (1971). Xanthine oxidase converts xanthine into uric acid, with oxygen acting as an electron acceptor. This causes superoxide radical to be produced. Superoxide radical is able to reduce nitro blue tetrazolium (NBT). Reduced NBT has a λmax of 560 nm. It is known that copper inhibits xanthine oxidase activity (Konstantinova et al., Free Rad. Res. Comms., 12-13:215-220 (1991)), so all experiments containing copper also contained ethylenediaminetetracetic acid (EDTA), a known copper chelator.
To perform the assay for SOD activity, 0.1 mM xanthine (Sigma Chemical Co.), 25 µM NBT (Sigma Chemical Co.), 50 mM sodium carbonate, and 1.2 µM EDTA (Sigma Chemical Co.), were mixed in a cuvette (all final concentrations, final pH 10.2). The reaction was started by the addition of various amounts of a tetrapeptide-copper complex (tetrapeptide/copper ratios of 1:1 and 2:1) and 20 nM xanthine oxidase (Sigma Chemical Co.). The tetrapeptide-copper complex was prepared by mixing the tetrapeptide and copper (as CuCl2) and allowing the mixture to incubate for 15 minutes at room temperature immediately before addition to the cuvette. The samples were read at time 0 and every 60 seconds for five minutes at 560 nm.

xanthine oxidase = molecular target: T1, xanthine oxidase (Bos taurus, UniProt P80457); test: Uric acid production at 295 nm (check for interference with xanthine oxidase activity); settings: concentration of 600 nM; data not shown
T1 construct: purchased Sigma Chemical Co
Method: Athar et al., Biochem. Mol. Biol. Int., 39(4):813-821 (1996); Ciuffi et al., Pharmacol Res., 38(4):279-287 (1998). This assay is similar to the SOD assay, except that NBT is not present. Instead, uric acid is assayed at 295 nm every 60 seconds for 5 minutes. […] Since superoxide is converted to hydrogen peroxide by the complex, this could help to explain why it is not effective at preventing hydroxyl radical production.

Superoxide radical [2] = test: Superoxide radical production, NBT reduction with copper and ascorbate; settings: 37°C, read at 560 nm at 5, 15, 30 and 60 minutes, maximum decreased for the 1:1 complex
Method: Superoxide radical production was measured in solutions containing the 1:1 or 2:1 tetrapeptide-copper complexes. The assay combined techniques from the TBA assay and the xanthine oxidase assay. NBT was added to all test tubes in order to quantitate its reduction by superoxide radical. The samples also contained ascorbate and copper and were incubated at 37°C. At 5,15,30 and 60 minutes, the samples were removed from the incubator and read at 560 nm. In the sample containing the 2:1 tetrapeptide-copper complex, NBT reduction increased over time and reached a maximum at 3 0 minutes.

T1 sequence (P80457 whole entry): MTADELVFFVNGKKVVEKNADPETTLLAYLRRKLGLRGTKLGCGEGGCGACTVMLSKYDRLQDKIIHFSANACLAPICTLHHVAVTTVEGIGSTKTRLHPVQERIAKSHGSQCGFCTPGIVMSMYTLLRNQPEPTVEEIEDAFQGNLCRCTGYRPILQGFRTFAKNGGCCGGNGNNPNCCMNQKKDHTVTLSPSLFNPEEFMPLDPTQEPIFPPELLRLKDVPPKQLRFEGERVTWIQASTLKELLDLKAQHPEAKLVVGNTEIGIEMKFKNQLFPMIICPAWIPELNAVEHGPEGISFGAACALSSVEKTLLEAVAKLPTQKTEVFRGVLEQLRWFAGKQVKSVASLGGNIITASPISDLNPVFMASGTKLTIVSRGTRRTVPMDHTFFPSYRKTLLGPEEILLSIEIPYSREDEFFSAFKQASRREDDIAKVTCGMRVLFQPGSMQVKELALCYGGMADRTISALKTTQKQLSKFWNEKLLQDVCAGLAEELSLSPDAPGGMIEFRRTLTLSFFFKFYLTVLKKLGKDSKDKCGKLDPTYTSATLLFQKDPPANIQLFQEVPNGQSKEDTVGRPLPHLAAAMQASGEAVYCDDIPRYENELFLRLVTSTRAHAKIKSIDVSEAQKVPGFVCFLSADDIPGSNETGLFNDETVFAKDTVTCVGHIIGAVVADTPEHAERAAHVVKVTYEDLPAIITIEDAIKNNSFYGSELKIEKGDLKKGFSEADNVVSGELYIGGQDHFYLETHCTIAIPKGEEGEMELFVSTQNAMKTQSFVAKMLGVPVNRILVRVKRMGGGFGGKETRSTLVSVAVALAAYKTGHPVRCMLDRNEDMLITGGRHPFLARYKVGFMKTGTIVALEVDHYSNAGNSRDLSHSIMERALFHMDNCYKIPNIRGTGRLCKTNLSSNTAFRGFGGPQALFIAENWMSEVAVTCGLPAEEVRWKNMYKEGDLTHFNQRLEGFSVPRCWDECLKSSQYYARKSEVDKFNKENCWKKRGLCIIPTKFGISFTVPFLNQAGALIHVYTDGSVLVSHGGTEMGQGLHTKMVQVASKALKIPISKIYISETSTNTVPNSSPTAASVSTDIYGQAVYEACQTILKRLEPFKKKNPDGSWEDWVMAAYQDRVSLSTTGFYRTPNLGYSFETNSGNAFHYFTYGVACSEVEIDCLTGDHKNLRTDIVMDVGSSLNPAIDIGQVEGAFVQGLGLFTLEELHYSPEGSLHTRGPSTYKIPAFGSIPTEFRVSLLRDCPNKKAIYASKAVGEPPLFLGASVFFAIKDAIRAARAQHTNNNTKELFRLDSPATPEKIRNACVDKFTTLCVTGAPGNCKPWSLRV

N[C@@H](Cc1c[nH]cn1)C(=O)O [Histidine, histidine]
% Inhibition (hydroxyl radicals): about 20% | % Inhibition (hydroxyl radicals; listed as Histindine): 20.3% | Absorbance at 532 nm (hydroxyl radicals; second absorbance column (copper only 0.954)): 0.760

1:1 tetrapeptide-copper complex: complex of L-Asp L-Ala L-His L-Lys and copper (as CuCl2), tetrapeptide/copper ratio 1:1 (DAHK; also: copper complex, peptide:Cu 1:1 (as CuCl2); UniProt P02768 25-28, looked up, fragment)
times less effective than SOD itself, based on IC50 values (Superoxide radical [1]; tetrapeptide/copper ratio 1:1, IC50 = amount that gives 50% inhibition): about 500 times | SOD activity (inhibition of NBT reduction) (Superoxide radical [1]): true SOD activity | SOD activity (inhibition of NBT reduction) (Superoxide radical [1]; listed as complex of the tetrapeptide with copper at a ratio of 1:1): have SOD activity | inhibition of uric acid production (xanthine oxidase): 11% | time at which NBT reduction reached a maximum (Superoxide radical [2]): 60 min

2:1 tetrapeptide-copper complex: complex of L-Asp L-Ala L-His L-Lys and copper (as CuCl2), tetrapeptide/copper ratio 2:1 (DAHK; also: copper complex, peptide:Cu 2:1 (as CuCl2); UniProt P02768 25-28, looked up, fragment)
SOD activity (inhibition of NBT reduction) (Superoxide radical [1]): no SOD activity
